Measured values reported in US7521536B2, “Glutamate transporter associated protein” (The Johns Hopkins University School of Medicine, priority 1999, dated 2009).

Key:
GTRAP3-18 [1] = assay: GTRAP3-18 antisense oligomers transfected into HEK293 cells; assay type: cell-based
Text: Western blot analyses and glutamate uptake assays reveal endogenous expression of EAAC1 and GTRAP3-18 protein in HEK cells, but no expression of other transporter subtypes, e.g., GLAST, GLT-1, or EAAT4. Antisense oligomers, targeted to the 5′-GTRAP3-18 transcript, were transfected into HEK293 cells.

GTRAP3-18 [2] = assay: intraventricular GTRAP3-18 antisense oligomers, cortical glutamate uptake; assay type: in vivo
Experimental: To examine modulation of EAAC1 by GTRAP3-18 in vivo, GTRAP3-18 antisense oligomers were administered intraventricularly. Sequences for the novel phosphodiester oligonucleotides used were: sense GTRAP3-18: 5′-GTGAACCTTGCCCGCTC-3′, antisense GTRAP3-18: 5′-GAGCGGGGCAAGGTTCAC-3′ Oligonucleotides (5 μg/μL), separately or in combination were administered intraventricularly over 3-11 days, by mini-osmotic pumps (Alza Corp., Palo Alto, Calif.) as described previously (Rothstein et al., (1994)).

GTRAP3-18 [3] = assay: intraventricular infusion of retinoic acid, cortical GTRAP3-18 and glutamate uptake; assay type: in vivo
Experimental: To test this hypothesis in vivo, retinoic acid was infused intraventricularly (1-20 μM; 0-20 pmol/μL). […] This effect is specifically due to decreased EAAC1 -mediated transport because it was not altered by the glutamate transport inhibitor dihydrokainic acid, at a concentration that predominantly effects GLT-1 (Robinson et al. (1998)). […] Retinoic acid had no effect on glutamate transport by cells expressing GLT-1 or EAAT4.

EAAT4 [4] = assay: cerebellar glutamate uptake after intra-cisternal injection of HSV amplicon vectors; assay type: in vivo, rat; details: inhibitor of GLT-1 mediated glutamate transport
EAAT4 [5] = assay: Na+-dependent glutamate uptake in EAAT4 expressing HEK cells transfected with PCTAIRE; assay type: cell-based
Experimental: Transfection of EAAT4 expressing HEK cells with PCTAIRE results in diminished Na^+-dependent glutamate uptake. HEK cells and EAAT4 expressing HEK cells were transfected with 1.0 μg of pCMV PCTAIRE plasmid, and allowed to express for 48 hours. Cell monolayers were then washed with tissue buffer (50 mM Tris, 320 mM sucrose, pH 7.4). The cells were then incubated for 4 min at 37° C. with 1 mL of either sodium-(120 mM NaCl, 25 mM NaHCO3, 5 mM KCl, 2 mM CaCl2, 1 mM KH2PO4, 1 mM MgSO4, 10% glucose and 10 μM glutamate or choline-(120 mM choline-Cl, 25 mM Tris-HCl, 5 mM KCl, 2 mM CaCl2, 1 mM KH2PO4, 1 mM MgSO4, 10% glucose and 10 μM glutamate) containing buffer. Glutamate uptake assays were then performed using L-[^3H]-Glutamate in the presence and absence of Na^+. After rinsing, cells were lysed in 0.1 N NaOH and lysate radioactivity measured using a scintillation counter. Protein content was measured and glutamate uptake calculated as the difference between Na^+ containing and sodium free values per mg of protein.
Inhibition of Na^+-dependent glutamate uptake by PCTAIRE is reversible using the cdk2 inhibitor olomucine. HEK cells expressing EAAT4 were transfected with 1.0 μg of pCMV PCTAIRE plasmid as described above, and allowed to express for 48 hours. Prior to glutamate uptake assay, cells were treated with 100 μM olomucine for 30 minutes at 37° C. as indicated. […]

[6] = eleven days of intraventricular treatment
[7] = antisense 50-100 ng/day intraventricular for 7-10 days, retinoic acid 2.5 μM

Compound: 5′-GAGCGGGGCAAGGTTCAC-3′ (DNA, all phosphodiester, methylation of C not given here) [antisense GTRAP3-18, phosphodiester oligonucleotide antisense to the 5′-GTRAP3-18 transcript]
- EAAC1 protein level (GTRAP3-18 [1]): not affected
- endogenous GTRAP3-18 protein level (GTRAP3-18 [1]): reduced
- glutamate transport activity (GTRAP3-18 [1]): elevated
- Vmax of DHK-insensitive cortical glutamate uptake (GTRAP3-18 [2]; antisense-treated animals, control 1.08): 1.08 nmol/min/mg protein
- Km (GTRAP3-18 [2]; antisense-treated animals, control Km=19.7 μM, read-out: Km of DHK-insensitive cortical glutamate uptake): 10 µM
- GTRAP3-18 protein level (GTRAP3-18 [2]; [6]): reduction
- cortical glutamate uptake (GTRAP3-18 [2]; [6]): significant increase
- inhibition of glutamate transport seen with retinoic acid treatment (GTRAP3-18 [3]; [7]): blocks
- retinoic acid induction of GTRAP3-18 (GTRAP3-18 [3]; [7]): blocks

Compound: 5′-GTGAACCTTGCCCGCTC-3′ (chemistry not fully specified) [sense GTRAP3-18, sense control phosphodiester oligonucleotide, reference compound]
- cortical glutamate uptake (GTRAP3-18 [2]; [6]): not altered

Compound: CC(C)[C@H]1CN[C@H](C(=O)O)[C@H]1CC(=O)O [Dihydrokainic acid, reference compound]
- effect on cerebellar glutamate uptake (EAAT4 [4]): no effect
- effect of inhibitor on the antisense-induced increase in cortical glutamate uptake (GTRAP3-18 [2]; in vivo): not altered
- effect of inhibitor on the retinoic acid-induced decrease of glutamate uptake (GTRAP3-18 [3]; concentration that predominantly effects GLT-1): not altered

Compound: Cn1cnc2c(NCc3ccccc3)nc(NCCO)nc21 [olomucine, reference compound]
- inhibition of Na+-dependent glutamate uptake by PCTAIRE (EAAT4 [5]; 100 μM for 30 minutes at 37° C. before uptake assay): reversible

Compound: PCTAIRE: serine/threonine kinase related to the cyclin-dependent kinase 2 (cdk2) family, interacts with amino terminus of EAAT4
- Na+-dependent glutamate uptake (EAAT4 [5]; 1.0 μg pCMV PCTAIRE plasmid, 48 hours): diminished
